Columns and labels:
[1] = tested on: Peripheral blood mononuclear cells (PBMCs); assay: Example 1: TNF-α secreted by PBMCs treated with IRM1 after dexamethasone pre-incubation (ELISA); format: cell-based, human; details: IRM1 1 μM, no dexamethasone, 24 hours
Description: (§1) Whole blood from healthy human donors was collected by venipuncture into EDTA vacutainer tubes (Becton Dickinson Labware, Lincoln Park, N.J.). Peripheral blood mononuclear cells (PBMCs) are separated from whole blood by density gradient centrifugation using HISTOPAQUE-1077 (Sigma-Aldrich Chemical Co., St. Louis, Mo.). The PBMCs are washed twice with Hank's Balanced Salts Solution (Celox Laboratories, Inc., Hopkins, Minn.) and then are suspended at 3-4×10^6 cells/mL in RPMI complete culture medium (Celox Laboratories, Inc., Hopkins, Minn.). The PBMC suspension was added to 48 well flat bottom sterile tissue culture plates (Becton Dickinson Labware, Lincoln Park, N.J.) containing an equal volume of RPMI complete media containing dexamethasone (Sigma Chemical Co., St. Louis, Mo.) at one of the dexamethasone concentrations indicated in Table 2. After one hour, IRMI was added to a final concentration of 1 μM, and then incubated at 37° C. for an additional 24 hours. Following incubation the cells were centrifuged for 5-10 minutes at 1000 rpm (˜200×g) at 4° C. […] The samples were analyzed for IFN-α and TNF-α secreted into the culture medium. The concentration of secreted IFN-α was determined by ELISA using a Human Multi-Species kit (PBL Biomedical Laboratories, Piscataway, N.J.). […]

[2] = tested on: Peripheral blood mononuclear cells (PBMCs); assay: Example 1: IFN-α secreted by PBMCs treated with IRM1 after dexamethasone pre-incubation (ELISA); format: cell-based, human; details: IRM1 1 μM, no dexamethasone, 24 hours
Description: as §1

Human PBMCs [3] = assay: Example 2: TNF-α secreted by PBMCs treated with IRM compound or LPS after dexamethasone pre-incubation (ELISA); format: cell-based; details: IRM2 1.0 μg/mL, LPS 0.1 μg/mL, 24 hours
Experimental: (§2) Human PBMCs were collected and prepared as described in Example 1. After one hour, the cells were treated with IRM compound, LPS, or left unstimulated, and then incubated for an additional 24 hours.
Secreted TNF-α was assayed by ELISA (Biosource International, Inc., Camarillo, Calif.).

male CFW mice = assay: Example 3: serum TNF in mice challenged with IRM2 after oral dexamethasone (ELISA); format: in vivo; details: IRM2 10 mg/kg, no dexamethasone
Experimental: A dexamethasone solution was prepared in saline and administered orally (3 mg/kg) to male CFW mice (Charles River Laboratories, Inc., Wilmington, Mass.) once or once daily for five days. Thirty minutes after the final administration of dexamethasone, the mice were challenged with a solution of IRM2 prepared in saline to provide a dose of 10 mg/kg. The mice were bled either 2 hours or 3 hours after being challenged with IRM2. Serum samples were analyzed by for TNF by ELISA as described in Example 1.

Human PBMCs [4] = assay: Example 4: TNF-α secreted by PBMCs with or without anti-TNF monoclonal antibody (ELISA); format: cell-based; details: IRM2 1.0 μg/mL, LPS 0.1 μg/mL, 24 hours
Experimental: as §2, with “1. The cells were incubated with an anti-TNF monoclonal antibody (mouse anti-human TNF, Promega Corp., Madison, Wis.).” for “1.”
(§3) Secreted TNF-α and IL-6 were assayed by ELISA (Biosource International, Inc., Camarillo, Calif.). Results are expressed in pg/mL for each cytokine.

Human PBMCs [5] = assay: Example 4: IL-6 secreted by PBMCs with or without anti-TNF monoclonal antibody (ELISA); format: cell-based; details: IRM2 1.0 μg/mL, LPS 0.1 μg/mL, 24 hours
Experimental: as §2, with “1. The cells were incubated with an anti-TNF monoclonal antibody (mouse anti-human TNF, Promega Corp., Madison, Wis.).” for “1.”
as §3

Human PBMCs [6] = assay: Example 4: IFN secreted by PBMCs with or without anti-TNF monoclonal antibody (virus neutralization bioassay, A549 cells/encephalomyocarditis virus); format: cell-based; details: IRM2 1.0 μg/mL, LPS 0.1 μg/mL, 24 hours
Experimental: as §2, with “1. The cells were incubated with an anti-TNF monoclonal antibody (mouse anti-human TNF, Promega Corp., Madison, Wis.).” for “1.”
Secreted IFN was assayed using a virus neutralization bioassay using A549 human lung carcinoma cells challenged with encephalomyocarditis. The details of the bioassay method have been described by G. L. Brennan and L. H. Kronenberg in “Automated Bioassay of Interferons in Micro-test Plates”, Biotechniques, June/July, 78, 1983, incorporated herein by reference. Briefly stated the method is as follows: A549 cells are incubated with dilutions of samples or a standard interferon at 37° C. for 24 hours. The incubated cells are then infected with an inoculum of encephalomyocarditis virus. The infected cells are incubated for an additional 24 hours at 37° C. before evaluating for viral cytopathic effect. The viral cytopathic effect is quantified by staining with crystal violet followed by visual scoring of the plates. Results are expressed as alpha reference units/mL based on the value obtained for NIH Human Leukocyte IFN standard.

PBMCs [7] = assay: Example 6: IFN-α induction by PBMCs with anti-TNF antibody or isotype control (ELISA, FIG. 1); format: cell-based, human; details: for IFN-α produced in combination with anti-TNF antibody versus IRM alone: IRM 3 μM + 1 μg/mL anti-TNF antibody, FIG. 1B versus FIG. 1A
Experimental: (§4) Whole blood from healthy human donors was collected by venipuncture into EDTA vacutainer tubes (Becton Dickinson Labware, Lincoln Park, N.J.). […] The PBMCs are washed twice with Phosphate Buffered Saline (PBS, Biosource, Camarillo, Calif.) and then are suspended at 5×10^6 cells/mL in RPMI complete culture medium (Celox Laboratories, Inc., Hopkins, Minn.). One milliliter of the PBMC suspension and 1.5 milliliter of RPMI complete media were added to each well of a 24 well flat bottom sterile tissue culture plate (Becton Dickinson Labware, Lincoln Park, N.J.) for a final PBMC concentration of 2×10^6 cells/mL.
(§5) Following incubation the cells were centrifuged for 5-10 minutes at 1000 rpm (˜200×g) at 4° C. The cell-free culture supernatant was removed with a sterile polypropylene pipette and transferred to sterile polypropylene tubes. Samples were maintained at −70° C. until analysis.
(§6) The samples were analyzed for IFN-α, TNF-α and IFN-γ secreted into the culture medium. The concentration of secreted IFN-α was determined by ELISA using a Human Multi-Species kit (PBL Biomedical Laboratories, Piscataway, N.J.). Secreted TNF-α and IFN-γ were analyzed using a human-specific TNF-α BV™ or IFN-γ BV™ immunoassay (BioVeris Corp., Gaithersburg, Md.).

PBMCs [8] = assay: Example 6: TNF-α induction by PBMCs with anti-TNF antibody or isotype control (immunoassay, FIG. 2); format: cell-based, human; details: for TNF-α induced in combination with anti-TNF antibody: IRM 3 μM + 1 μg/mL anti-TNF antibody, FIG. 2B; for TNF-α induction: IRM 3 μM alone (isotype control antibody), FIG. 2A
Experimental: as §4, §5, §6

[9] = +Ab (anti-TNF monoclonal antibody)

CCOCc1nc2c(N)nc3ccccc3c2n1CC(C)(C)O [IRM1, 4-amino-α,α-dimethyl-2-ethoxymethyl-1H-imidazo[4,5-c]quinolin-1-ethanol]
TNF [1]: 3000 pg/mL
IFN [2]: 959 U/mL

Cc1nc2c(N)nc3ccccc3c2n1CC(C)(C)O [IRM2, 4-amino-α,α,2-trimethyl-1H-imidazo[4,5-c]quinoline-1-ethanol]
Secreted TNF-α (Human PBMCs [3]; 0 μM Dex.): 1570 pg/mL
Secreted TNF-α (Human PBMCs [3]; 0.01 μM Dex.): 775 pg/mL
Secreted TNF-α (Human PBMCs [3]; 0.1 μM Dex.): 224 pg/mL
Secreted TNF-α (Human PBMCs [3]; 1.0 μM Dex.): 191 pg/mL
Serum TNF (male CFW mice; 2 hrs. post-challenge): 2983 pg/mL
Serum TNF (male CFW mice; 3 hrs. post-challenge): 487 pg/mL
TNF (Human PBMCs [4]; [9]): 61 pg/mL
TNF (Human PBMCs [4]; No Ab): 1340 pg/mL
IL-6 (Human PBMCs [5]; [9]): 24189 pg/mL
IL-6 (Human PBMCs [5]; No Ab): 20137 pg/mL
IFN (Human PBMCs [6]; [9]): 290 U/mL
IFN (Human PBMCs [6]; No Ab): 460 U/mL

CCOCc1nc2c(N)nc3c(c2n1CC(C)(C)O)CCCC3 [IRM5, 4-amino-2-(ethoxymethyl)-α,α-dimethyl-6,7,8,9-tetrahydro-1H-imidazo[4,5-c]quinoline-1-ethanol]
IFN-α produced in combination with anti-TNF antibody versus IRM alone (PBMCs [7]): increased levels
TNF-α induced in combination with anti-TNF antibody (PBMCs [8]): substantially limited
TNF-α induction (PBMCs [8]): significant levels

CCc1nc2c(N)nc3ccccc3c2n1CCCCNS(C)(=O)=O [IRM8, N-[4-(4-amino-2-ethyl-1H-imidazo[4,5-c]quinolin-1-yl)butyl]methanesulfonamide]
IFN-α produced in combination with anti-TNF antibody versus IRM alone (PBMCs [7]): increased levels
IFN-α induction (PBMCs [7]; IRM 3 μM alone (isotype control antibody), FIG. 1A, compared to other IRM compounds): relatively potent inducer
TNF-α induction (PBMCs [8]): relatively poor inducer

COCCc1nc2c(N)nc3ccccc3c2n1CCOCCNC(=O)N1CCOCC1 [IRM12, N-(2-{2-[4-amino-2-(2-methoxyethyl)-1H-imidazo[4,5-c]quinolin-1-yl]ethoxy}ethyl)morpholine-4-carboxamide]
IFN-α produced in combination with anti-TNF antibody versus IRM alone (PBMCs [7]): increased levels
TNF-α induced in combination with anti-TNF antibody (PBMCs [8]): substantially limited
TNF-α induction (PBMCs [8]): significant levels
